Measurements: US20070059376A1, “Peptide conjugate” (priority 2003, published 2007)
Groups on a side chain read outwards from the residue. No end group written: not given here. Glu2C18 = not defined here

Assays:
resting platelets = assay: Binding test to resting platelets (flow cytometry aggregation ratio); format: cell-based; details: resting platelets 2.0×10^4/μl, beads 1.0×10^5/μl, 37° C., 30 min
Experimental: (§1) Resting platelets (2.0×10^4/μl) were mixed with 1.0×10^5/μl of each of LB, H12-LB and CGGRGDF-LB [LB bound with a peptide having an RGD sequence (Arg-Gly-Asp)], followed by shaking (37° C., 30 min), and the aggregation ratio in each case was evaluated by flow cytometry. […] Based on this, it was confirmed that H12-LB hardly agglutinate to resting platelets when compared with CGGRGDF-LB.

platelets [1] = assay: Aggregation test with platelets, latex beads as carrier: platelet adhesion on collagen-immobilized surface under flow in thrombocytopenia model blood; format: cell-based; details: after 180 seconds
Experimental: (§2) A thrombocytopenia model blood was prepared by passing whole blood-through a leukocyte removing filter for leukocyte depleted preparations (NEOIJ, Nihon Pall) by gravity, and adjusting the platelet concentration to 2.0×10^4/μl by adding platelet rich plasma (PRP) (an automatic blood cell counter K-4500, Sysmex, Kobe).
(§3) H12-LB (1.0×10^5 particles/μl) was added to 5 ml of the thrombocytopenia model blood, allowed to stand (37° C., 10 min), flowed on a collagen-immobilized surface using a pump (rate of shear 150 s^−1), and then observed under a fluorescence microscope or through a CCD camera. An adhesion occupying ratio [surface coverage (hereinafter referred to as “SC”)] of micro particles to each surface was measured using an image analyzer (Argus-50, Hamamatsu Photonics).
Only platelets were subjected to fluorescence labeling [3,3′-dihexyloxacarbocyanine iodide (DiOC6)], and their adhesion behavior was periodically observed. As a result, SC of platelets on the surface increased with the lapse of time and was 3.1±0.4% after 180 seconds (FIG. 1: □, control). […] Thus, when H12-LB was added instead of LB, the platelet adhesion was further amplified than the case of the LB addition, and was 5.1±0.3% after 180 seconds, or amplified about 1.7 times than the control (FIG. 1: ∘).

[2] = system: platelets activated by adhering to collagen; assay: Adhesion behavior of FITC-labeled latex beads on collagen-immobilized surface under flow in thrombocytopenia model blood; format: cell-based
Experimental: as §2, §3
In addition, the number of H12-LB bound to the surface was inhibited when the platelet concentration was 0.2×10^4/μl (FIG. 2: •), and were hardly seen in the case of LB (FIG. 2: □).

platelets [3] = assay: Aggregation test with platelets, vesicles as carrier: platelet adhesion on collagen surface under flow in thrombocytopenic blood; format: cell-based; details: for SC of platelets (%): thrombocytopenic blood, platelets 5.0×10^4/μl, collagen surface, shear 150 s^-1, H12-PEG-Glu2C18 0.3 mol %
Experimental: Platelets were fluorescence-labeled with DiOC6, and the H12-PEG(PEG) vesicle (1.5 wt %, 200 μl) was added to 5 ml of the thrombocytopenic blood ([platelets]=5.0×10^4/μl), allowed to stand (37° C., 10 min), allowed to flow on the collagen surface at a rate of shear of 150 s^−1, and then observed under a fluorescence microscope. The SC of platelets on the surface was analyzed by Argus-20. When H12-PEG vesicle (H12-PEG-Glu2C18: 0.3 mol %) or PEG vesicle was added to the thrombocytopenic blood ([platelets]=5.0×10^4/μl) and allowed to flow on the collagen surface, the SC was increased in the H12-PEG vesicle-added system, in comparison with the PEG vesicle-added system (Table 1).

[4] = Retention of H12-PEG-Glu2C18 in phospholipid vesicles (1H-NMR molar ratio after shaking); format: physicochemical; details: diluted 30 times with PBS, shaken at 37° C. for 12 hours
Experimental: In this connection, the prepared phospholipid vesicles (H12-PEG vesicles, 1.8 wt %) were diluted 30 times with PBS and shaken at 37° C. for 12 hours, and then the vesicles were precipitated by centrifugation (33000 rpm, 1 h) and dispersed, followed by freeze drying, and the resulting powder was subjected to ^1H-NMR measurement.

platelets [5] = assay: Interaction with platelets, vesicles as carrier (flow cytometry, PAC-1 and vesicle binding); format: cell-based; details: thrombocytopenia plasma, platelets 5.0×10^4/μl, 30 min, 37° C.
Experimental: After 80 μl of thrombocytopenia plasma ([platelets]=5.0×10^4/μl) was prepared, fluorescence-labeled H12-PEG(PEG) vesicles (8.2 μM, 20 μl) or a fluorescence-labeled antibody and H12-PEG(PEG) vesicles (0.082 μM, 20 μl) were added thereto, followed by stirring (30 min, 37° C.). The mixture was subsequently subjected to formaldehyde (3.7%) fixation, diluted 10 times and then measured using flow cytometry.

[6] = molecular target: T1, GPIIb/IIIa on resting platelets (UniProt P08514 32-1039; P05106 27-788, limits assumed); assay: flow cytometry, fluorescence-labeled antibody on platelets, PBS added
T1 construct: whole, on cells; also called resting GPIIb/IIIa; normal platelets
T1 sequence (P08514 32-1039 limits assumed, chain 1 of 2): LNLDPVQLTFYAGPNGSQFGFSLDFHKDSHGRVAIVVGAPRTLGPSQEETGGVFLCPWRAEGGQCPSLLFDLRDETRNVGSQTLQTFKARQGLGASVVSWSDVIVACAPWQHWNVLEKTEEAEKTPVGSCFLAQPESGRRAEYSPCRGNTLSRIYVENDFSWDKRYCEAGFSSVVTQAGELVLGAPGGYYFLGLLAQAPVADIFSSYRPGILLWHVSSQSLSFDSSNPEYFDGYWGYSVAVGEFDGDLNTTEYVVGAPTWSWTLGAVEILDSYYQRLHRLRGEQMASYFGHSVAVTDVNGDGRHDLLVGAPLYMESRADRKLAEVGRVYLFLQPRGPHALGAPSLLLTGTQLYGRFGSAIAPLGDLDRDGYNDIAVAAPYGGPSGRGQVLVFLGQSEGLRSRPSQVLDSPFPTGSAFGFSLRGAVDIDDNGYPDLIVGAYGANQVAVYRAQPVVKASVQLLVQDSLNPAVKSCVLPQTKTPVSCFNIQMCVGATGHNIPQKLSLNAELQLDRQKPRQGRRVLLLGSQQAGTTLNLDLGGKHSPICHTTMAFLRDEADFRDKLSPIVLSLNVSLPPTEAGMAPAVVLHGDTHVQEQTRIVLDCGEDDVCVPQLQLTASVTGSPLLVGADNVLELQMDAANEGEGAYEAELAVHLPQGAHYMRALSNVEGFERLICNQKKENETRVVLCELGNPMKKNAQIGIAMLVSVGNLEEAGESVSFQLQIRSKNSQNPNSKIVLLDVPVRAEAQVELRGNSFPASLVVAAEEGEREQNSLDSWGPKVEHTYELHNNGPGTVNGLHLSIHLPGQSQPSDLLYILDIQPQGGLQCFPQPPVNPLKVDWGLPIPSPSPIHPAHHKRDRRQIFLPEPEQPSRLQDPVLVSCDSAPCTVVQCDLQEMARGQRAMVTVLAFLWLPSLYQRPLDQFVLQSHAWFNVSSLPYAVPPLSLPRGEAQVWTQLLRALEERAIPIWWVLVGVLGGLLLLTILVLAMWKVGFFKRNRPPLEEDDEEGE
T1 sequence (P05106 27-788 limits assumed, chain 2 of 2): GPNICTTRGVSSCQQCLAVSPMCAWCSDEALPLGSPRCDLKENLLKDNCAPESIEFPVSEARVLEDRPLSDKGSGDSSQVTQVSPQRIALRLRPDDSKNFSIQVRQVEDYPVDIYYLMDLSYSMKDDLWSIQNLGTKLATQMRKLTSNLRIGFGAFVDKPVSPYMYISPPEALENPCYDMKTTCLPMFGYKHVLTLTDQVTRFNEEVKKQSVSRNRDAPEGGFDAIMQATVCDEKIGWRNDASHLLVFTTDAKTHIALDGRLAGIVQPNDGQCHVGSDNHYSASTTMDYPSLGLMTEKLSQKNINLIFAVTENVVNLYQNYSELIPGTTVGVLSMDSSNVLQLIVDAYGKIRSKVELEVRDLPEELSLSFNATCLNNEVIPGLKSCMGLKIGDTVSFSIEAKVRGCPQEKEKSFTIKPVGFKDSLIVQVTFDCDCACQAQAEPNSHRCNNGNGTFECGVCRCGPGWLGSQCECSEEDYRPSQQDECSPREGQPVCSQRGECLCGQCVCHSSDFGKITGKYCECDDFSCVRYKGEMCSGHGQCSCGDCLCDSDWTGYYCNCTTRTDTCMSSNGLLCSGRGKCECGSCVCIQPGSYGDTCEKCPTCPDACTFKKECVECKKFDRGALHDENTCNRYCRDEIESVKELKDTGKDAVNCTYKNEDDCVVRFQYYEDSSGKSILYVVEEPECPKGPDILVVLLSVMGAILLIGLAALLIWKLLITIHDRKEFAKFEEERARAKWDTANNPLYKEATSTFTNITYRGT

[7] = molecular target: T1, GPIIb/IIIa on resting platelets; assay: flow cytometry, fluorescence-labeled antibody on platelets, PEG vesicles added
[8] = molecular target: T1, GPIIb/IIIa on resting platelets; assay: flow cytometry, fluorescence-labeled antibody on platelets, H12-PEG(PEG) vesicles added
[9] = molecular target: T1, GPIIb/IIIa on resting platelets; assay: flow cytometry, beads (1.0×10^5/µl) mixed with resting platelets (2.0×10^4/µl), 37° C., 30 min
Experimental: as §1, with “(2.0×10⁴/μl)” for “(2.0×10^4/μl)”, “1.0×10⁵/μl” for “1.0×10^5/μl”

In the case of “CGGRGDF-LB: LB bound with a peptide having an RGD sequence (Arg-Gly-Asp) (also: bound to latex beads (LB)) [reference compound]”, the “aggregation ratio with resting platelets” value (resting platelets) is reported as 2.9 ± 1.3%.

With “H12-LB: Dodecapeptide H12 (SEQ ID NO: 1, via Cys and SPDP linker) coupled to rHSA-adsorbed latex beads of 1 μm diameter (CHHLGGAKQAGDV; cyclised or stapled)” the “amplification of platelet adhesion versus control (LB)” value (platelets [1]) was “about 1.7 times”, the “SC (surface coverage) of platelets on collagen surface” value (platelets [1]; shear 150 s^-1, platelets 2.0×10^4/μl, beads 1.0×10^5 particles/μl, DiOC6-labeled platelets) was 5.1±0.3% and the “number of beads bound to collagen surface” value ([2]; platelet concentration 0.2×10^4/μl (FIG. 2)) was “inhibited”. For the same molecule, the “SC of FITC-labeled beads bound to collagen surface” value ([2]; platelets 2.0×10^4/μl, shear 150 s^-1 (FIG. 2)) was “gradually increased” and the “aggregation ratio with resting platelets” value (resting platelets) was “did not show increase”.

With “H12-PEG vesicle: DPPC/cholesterol vesicle containing H12-PEG-Glu2C18 alone (C([MAL‑PEG3400-Glu2C18])HHLGGAKQAGDV-OH; not fully specified; reading uncertain)” the “SC of platelets (%)” value (platelets [3]) was 15.0 ± 5.0% and the “stability: retention of H12-PEG-Glu2C18 in vesicles (molar ratio of DPPC, cholesterol and H12-PEG-Glu2C18)” value [4] was “not released from the phospholipid vesicles but stably maintained”.

With “H12-PEG(PEG) vesicle: DPPC/cholesterol vesicle containing PEG-Glu2C18 and H12-PEG-Glu2C18 (CHHLGGAKQAGDV-OH; not fully specified (residue 1))” the “SC of platelets on collagen surface” value (platelets [3]; H12-PEG-Glu2C18 modification ratio 0.1 mol % or less (FIG. 6)) was “almost the same as the case of PEG vesicle”, the “SC of platelets on collagen surface” value (platelets [3]; H12-PEG-Glu2C18 modification ratio 0.3 mol % or more (FIG. 6)) was “the effect appears” and the “SC of platelets (%)” value (platelets [3]) was 17.3 ± 1.9%. The “PAC-1 binding (%)” value (platelets [5]; fluorescence-labeled antibody with vesicles) was 3.7 ± 0.4% and the “vesicle binding (%)” value (platelets [5]; fluorescence-labeled vesicles) was 1.4 ± 0.6%.

PAC-1 (antibody) showed a PAC-1 binding (%) [6] of 3.8%, a PAC-1 binding (%) [7] of 3.4% and a PAC-1 binding (%) [8] of 3.7%.

For CGGRGDF (also: bound to latex beads, coupling chemistry not described, Comparison conjugate) [CGGRGDF-LB [LB bound with a peptide having an RGD sequence (Arg-Gly-Asp)]], the aggregation ratio [9] was 2.9%.
